Experimental data reported in patent US20200397795A1, “PROPHYLACTIC TREATMENT OF VENOUS THROMBOEMBOLISM” (JANSSEN PHARMACEUTICALS, INC., priority 2019, published 2020).

Tested on: venous thromboembolism (VTE) in patients hospitalized for acute medical illness
Experiment: MAGELLAN (Study 1): efficacy of oral rivaroxaban 10 mg OD 35 days vs sc enoxaparin 40 mg OD 10 days then placebo
Format: in vivo
Protocol: The objective of Study 1 (MAGELLAN or MAGELLAN Study) was to compare efficacy and safety of venous thromboembolism (VTE) prophylaxis with oral rivaroxaban 10 mg once daily administered for 35±4 days (hereafter referred to as 35 days or Day 35) to subcutaneous enoxaparin 40 mg once daily (OD) administered for 10±4 days (hereafter referred to as 10 days or Day 10) in men and women aged 40 years or above, who have been hospitalized for a medical illness.
Diagnosis and main criteria for inclusion in Study 1 was men and women 40 years or above and at risk for VTE being hospitalized for acute medical illness conditions, including: heart failure (New York Heart Association [NYHA] class III or IV); active cancer (e.g., admitted for chemotherapy or for the treatment of a complication of active cancer); acute ischemic stroke; acute infectious and inflammatory diseases, including acute rheumatic diseases; and acute respiratory insufficiency. Also at least one additional risk factor for VTE, including: severe varicosis (varicosities); chronic venous insufficiency; history of cancer; history of deep vein thrombosis (DVT) or pulmonary embolism (PE); history of heart failure (NYHA class III or IV); thrombophilia (hereditary or acquired); recent major surgery (6-12 weeks); recent serious trauma (6-12 weeks); hormone replacement therapy; advanced age greater than or equal to 75 years; morbid obesity (body mass index (BMI) 35 kg/m^2 or higher); and acute infectious disease contributing to hospitalization.
The study was conducted in a prospective, randomized, double-blind, double dummy, active comparator-controlled, multicenter and multinational design. There were 8101 subjects were randomized at 556 study centers in 52 countries to one of the two treatment groups. Of the 8101 randomized subjects, 4050 were randomized to active rivaroxaban and 4051 were randomized to active enoxaparin.
Primary Endpoints: The primary efficacy variable was a composite of the number of events of: asymptomatic proximal DVT in lower extremity detected by mandatory bilateral lower extremity venous ultrasonography; symptomatic DVT in lower extremity, proximal or distal; symptomatic, non-fatal PE; and VTE-related death defined as either a well-documented fatal PE, or sudden death with no other plausible explanation. The two primary efficacy endpoints were (i) test of superiority at Day 35 (Days 29-41, inclusive) and (ii) test of non-inferiority at Day 10 (Days 6-15, inclusive).
Secondary Endpoints: The first major secondary efficacy endpoint was defined as a composite of the test of superiority at Day 35 with component of VTE-related death substituted by all-cause mortality, up to Day 35. The second major efficacy secondary efficacy endpoint was the test for superiority at Day 10 using the same composite endpoint as the Day 10 non-inferiority test.
For both primary efficacy endpoints, the relative risk ratio (rivaroxaban/enoxaparin) with respect to the incidences of the primary efficacy endpoint was estimated based on a stratified estimator using Mantel-Haenszel weights (based on sample sizes by geographic region). The corresponding asymptotic 2-sided 95% confidence interval based on the approximation to the normal distribution was determined. Sensitivity analyses were performed for the primary efficacy endpoints.
The primary efficacy variable was a composite of the number of events of (1) asymptomatic proximal DVT in lower extremity detected by mandatory bilateral lower extremity venous ultrasonography; (2) symptomatic DVT in lower extremity, proximal or distal; (3) symptomatic, nonfatal PE; and (4) VTE-related death. […]

[1] = Day 10 + 5, PP Day 10 plus major and clinically relevant bleeds
[2] = Day 10 + 5, per protocol Day 10 analysis set
[3] = Day 10 + 5 up to Day 35 + 6, mITT (Day 10 to Day 35) analysis set
[4] = Day 10 + 5 up to Day 35 + 6, mITT (Day 10 to Day 35) analysis set, listed as enoxaparin
[5] = Day 35 + 6, mITT Day 35 analysis set
[6] = Day 35 + 6, mITT Day 35 analysis set, listed as enoxaparin
[7] = Day 35 + 6, mITT Day 35 plus major and clinically relevant bleeds

Substance: Enoxaparin
- Major vascular events (CV death, acute myocardial infarction, or acute ischemic stroke), incidence (Day 10): 1.0%
- Symptomatic VTE excluding VTE-related death, incidence (Day 10): 0.3%
- Symptomatic VTE including death, incidence (Day 10): 0.6%
- Net clinical benefit component: asymptomatic lower proximal deep vein thrombosis [1]: 71 (2.4%)
- Net clinical benefit component: clinically relevant non-major bleeding [1]: 32 (1.1%)
- Net clinical benefit component: death (pulmonary embolism) [1]: 6 (0.2%)
- Net clinical benefit component: major bleeding [1]: 4 (0.1%)
- Net clinical benefit component: symptomatic deep vein thrombosis in lower extremity [1]: 6 (0.2%)
- Net clinical benefit component: symptomatic non-fatal pulmonary embolism [1]: 2 (<0.1%)
- Net clinical benefit component: venous thromboembolism related death [1]: 6 (0.2%)
- Net clinical benefit, any event, incidence [1]: 118 (3.9%)
- Net clinical benefit, any event, incidence (Day 10 + 5, PP Day 10 plus major and clinically relevant bleeds, listed as enoxaparin): 3.9%
- Asymptomatic proximal deep vein thrombosis in lower extremity, incidence [2]: 71 (2.4%)
- Death (pulmonary embolism cannot be excluded), incidence [2]: 6 (0.2%)
- Primary efficacy composite, any event, incidence [2]: 82 (2.7%)
- Symptomatic deep vein thrombosis in lower extremity, incidence [2]: 6 (0.2%)
- Symptomatic non-fatal pulmonary embolism, incidence [2]: 2 (<0.1%)
- Venous thromboembolism related death, incidence [2]: 6 (0.2%)
- Primary efficacy composite, any event, incidence (Day 10 + 5, per protocol Day 10 analysis set, listed as enoxaparin): 2.7%
- Asymptomatic proximal deep vein thrombosis in lower extremity, incidence [3]: 89 (2.9%)
- Death (pulmonary embolism cannot be excluded), incidence [3]: 15 (0.5%)
- Death (pulmonary embolism), incidence [3]: 0%
- Symptomatic deep vein thrombosis in lower extremity, incidence [3]: 7 (0.2%)
- Symptomatic non-fatal pulmonary embolism, incidence [3]: 10 (0.3%)
- Venous thromboembolism related death, incidence [3]: 15 (0.5%)
- Primary efficacy composite, any event, incidence (Day 10 + 5 up to Day 35 + 6, mITT (Day 10 to Day 35) analysis set, rivaroxaban-placebo phase): 114 (3.8%)
- Primary efficacy composite, any event, incidence (Day 10 + 5 up to Day 35 + 6, mITT (Day 10 to Day 35) analysis set, rivaroxaban-placebo phase, listed as enoxaparin): 3.8%
- Asymptomatic proximal deep vein thrombosis in lower extremity, incidence [4]: 2.9%
- Venous thromboembolism related death, incidence [4]: 0.5%
- Major vascular events, incidence (Day 35): 1.6%
- Symptomatic VTE excluding VTE-related death, incidence (Day 35): 0.7%
- Symptomatic VTE including death, incidence (Day 35): 1.4%
- Asymptomatic proximal deep vein thrombosis in lower extremity, incidence [5]: 133 (4.4%)
- Death (pulmonary embolism cannot be excluded), incidence [5]: 29 (0.9%)
- Death (pulmonary embolism), incidence [5]: 1 (<0.1%)
- Primary efficacy composite, any event, incidence [5]: 175 (5.7%)
- Symptomatic deep vein thrombosis in lower extremity, incidence [5]: 15 (0.5%)
- Symptomatic non-fatal pulmonary embolism, incidence [5]: 14 (0.5%)
- Venous thromboembolism related death, incidence [5]: 30 (1.0%)
- Asymptomatic proximal deep vein thrombosis in lower extremity, incidence [6]: 4.4%
- Primary efficacy composite, any event, incidence [6]: 5.7%
- Venous thromboembolism related death, incidence [6]: 1.0%
- Net clinical benefit component: asymptomatic lower proximal deep vein thrombosis [7]: 133 (4.3%)
- Net clinical benefit component: clinically relevant non-major bleeding [7]: 52 (1.7%)
- Net clinical benefit component: death (pulmonary embolism cannot be excluded) [7]: 29 (0.9%)
- Net clinical benefit component: death (pulmonary embolism) [7]: 1 (<0.1%)
- Net clinical benefit component: major bleeding [7]: 15 (0.5%)
- Net clinical benefit component: symptomatic deep vein thrombosis in lower extremity [7]: 15 (0.5%)
- Net clinical benefit component: symptomatic non-fatal pulmonary embolism [7]: 14 (0.5%)
- Net clinical benefit component: venous thromboembolism related death [7]: 30 (1.0%)
- Net clinical benefit, any event, incidence [7]: 240 (7.8%)
- Net clinical benefit, any event, incidence (Day 35 + 6, mITT Day 35 plus major and clinically relevant bleeds, listed as enoxaparin): 7.8%
- Composite endpoint including all-cause mortality, incidence (Day 35, mITT Day 35 expanded): 9.2%
- All-cause mortality, incidence (Day 90): 6.2%
- Major vascular events, incidence (Day 90): 2.8%
- Symptomatic VTE excluding VTE-related death, incidence (Day 90): 0.9%
- Symptomatic VTE including death, incidence (Day 90): 1.9%
